Reference: publication PMC10410612 (2023)

Columns and labels:
[1] = tested on: poly(rA)·poly(rU) (RNA, polymer) A/U; test: ethidium bromide displacement fluorescence; details: NaCac 2.5 mM; pH 7.0; tracer ethidium bromide; some interaction
[2] = tested on: poly(rA)·poly(rU) (RNA, polymer) A/U; test: UV melting; details: NaCac 2.5 mM; pH 7.0; 1:1 ratio complex/polynucleotide; free Tm 47.9 °C; per base
[3] = tested on: poly(rU)*poly(rA)·poly(rU) (RNA, polymer) U/A/U; test: UV melting; details: NaCac 2.5 mM; pH 7.0; 1:1 ratio complex/polynucleotide; free Tm 46.9 °C; per base
[4] = tested on: poly(rU)*poly(rA)·poly(rU) (RNA, polymer) U/A/U; test: UV-vis absorbance titration, HypSpec2014 fit; details: NaCac 2.5 mM; pH 7.0, 25.0 °C; per base triplet, site size n = 1
[5] = tested on: poly(rA)·poly(rU) (RNA, polymer) A/U; test: UV-vis absorbance titration, HypSpec2014 fit; details: NaCac 2.5 mM; pH 7.0, 25.0 °C; per base pair, site size n = 1

binding [1]: yes
ΔTm [2]: -6.5 ± 0.9 °C
ΔTm [3]: 1.6 ± 0.5 °C
K [4]: (3.1 ± 0.9) × 10^5
K [5]: (6.0 ± 0.9) × 10^5
Structure (SMILES): C=[C-]c1cccc(OC(=O)c2ccccc2OC(C)=O)c1.[C-]#[O+].[C-]#[O+].[C-]#[O+].[Ru+2].[Ru+2].c1cc[cH-]c1.c1cc[cH-]c1
